One block for each molecule: values may come before it.
What was measured:
Type in all cases: biochemical
PLK2 = PLK2 (Homo sapiens, UniProt Q9NYY3); test: PLK TR-FRET peptide assay, PLK2; conditions: PLK TR-FRET peptide assay, GST-PLK2, 60 min reaction; read-out: Plk2 IC50
PLK3 = PLK3 (Homo sapiens, UniProt Q9H4B4); test: PLK TR-FRET peptide assay, PLK3; conditions: GST-PLK3, 15 min reaction, read-out: Plk3 IC50
PLK1 = PLK1 (Homo sapiens, UniProt P53350); test: PLK TR-FRET peptide assay, PLK1; conditions: GST-PLK1, 60 min reaction
Chain of PLK1 (P53350 whole entry): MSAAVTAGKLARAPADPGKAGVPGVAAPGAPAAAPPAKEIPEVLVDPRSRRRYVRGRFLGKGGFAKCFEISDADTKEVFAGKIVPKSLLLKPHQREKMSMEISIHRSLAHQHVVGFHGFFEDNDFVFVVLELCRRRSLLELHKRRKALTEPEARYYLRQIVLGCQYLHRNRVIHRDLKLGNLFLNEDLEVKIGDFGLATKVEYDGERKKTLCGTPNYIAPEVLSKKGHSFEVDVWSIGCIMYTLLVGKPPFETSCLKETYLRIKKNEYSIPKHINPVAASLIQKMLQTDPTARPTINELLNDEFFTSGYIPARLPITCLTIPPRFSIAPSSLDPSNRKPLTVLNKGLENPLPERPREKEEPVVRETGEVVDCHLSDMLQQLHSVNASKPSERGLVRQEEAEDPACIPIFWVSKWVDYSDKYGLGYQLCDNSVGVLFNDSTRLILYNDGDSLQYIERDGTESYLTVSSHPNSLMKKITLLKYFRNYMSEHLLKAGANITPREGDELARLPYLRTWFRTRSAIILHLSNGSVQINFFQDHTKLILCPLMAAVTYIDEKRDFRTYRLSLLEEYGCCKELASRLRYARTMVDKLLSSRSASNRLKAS

Chain of PLK3 (Q9H4B4 whole entry): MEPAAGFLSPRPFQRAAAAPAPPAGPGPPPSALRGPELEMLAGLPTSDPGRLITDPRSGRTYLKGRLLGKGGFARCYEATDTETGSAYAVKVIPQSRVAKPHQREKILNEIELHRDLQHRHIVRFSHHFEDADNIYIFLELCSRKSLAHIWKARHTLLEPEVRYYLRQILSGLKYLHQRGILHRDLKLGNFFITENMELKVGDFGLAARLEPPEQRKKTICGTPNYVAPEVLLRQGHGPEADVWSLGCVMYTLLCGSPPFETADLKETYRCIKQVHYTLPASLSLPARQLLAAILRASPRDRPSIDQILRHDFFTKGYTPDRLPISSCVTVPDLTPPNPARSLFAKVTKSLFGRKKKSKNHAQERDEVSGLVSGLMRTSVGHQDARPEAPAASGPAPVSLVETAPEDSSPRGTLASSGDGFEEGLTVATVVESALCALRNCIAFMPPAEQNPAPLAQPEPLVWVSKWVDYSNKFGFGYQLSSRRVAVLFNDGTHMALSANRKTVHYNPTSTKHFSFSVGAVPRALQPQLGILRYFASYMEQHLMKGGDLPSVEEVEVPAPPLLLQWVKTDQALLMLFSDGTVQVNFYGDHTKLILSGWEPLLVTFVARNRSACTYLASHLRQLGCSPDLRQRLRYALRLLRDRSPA
Chain of PLK2 (Q9NYY3 whole entry): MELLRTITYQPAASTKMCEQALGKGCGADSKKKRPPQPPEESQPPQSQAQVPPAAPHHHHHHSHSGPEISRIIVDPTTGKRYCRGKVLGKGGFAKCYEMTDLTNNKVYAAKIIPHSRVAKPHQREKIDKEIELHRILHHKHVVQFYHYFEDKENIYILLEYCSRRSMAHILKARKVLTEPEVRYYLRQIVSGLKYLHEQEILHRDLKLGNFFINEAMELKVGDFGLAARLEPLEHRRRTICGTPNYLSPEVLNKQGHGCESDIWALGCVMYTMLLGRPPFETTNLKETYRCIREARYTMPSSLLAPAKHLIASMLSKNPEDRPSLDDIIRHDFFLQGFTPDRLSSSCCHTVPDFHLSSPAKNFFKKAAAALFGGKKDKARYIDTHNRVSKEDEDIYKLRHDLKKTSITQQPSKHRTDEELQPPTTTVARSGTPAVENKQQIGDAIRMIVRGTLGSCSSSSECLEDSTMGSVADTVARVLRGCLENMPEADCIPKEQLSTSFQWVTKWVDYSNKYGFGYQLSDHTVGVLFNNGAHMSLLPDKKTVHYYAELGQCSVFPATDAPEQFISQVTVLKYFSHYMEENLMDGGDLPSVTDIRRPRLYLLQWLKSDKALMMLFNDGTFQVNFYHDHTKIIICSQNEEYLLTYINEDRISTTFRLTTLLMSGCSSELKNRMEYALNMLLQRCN

SMILES: CC[C@@H]1C(=O)N(C)c2cnc(-c3ccncc3CNC(=O)c3ccccc3)nc2N1C1CCCC1 [Example 123, (R)—N-((4-(8-cyclopentyl-7-ethyl-5-methyl-6-oxo-5,6,7,8-tetrahydropteridin-2-yl)pyridin-3-yl)methyl)benzamide]
IC50 (PLK2): 10 to 50 µM
IC50 (PLK3): > 50 µM
IC50 (PLK1): 10 to 50 µM

SMILES: CC[C@@H]1C(=O)N(C)c2cnc(-c3ccncc3NS(=O)(=O)c3ccccc3)nc2N1C1CCCC1 [Example 127, (R)—N-(4-(8-cyclopentyl-7-ethyl-5-methyl-6-oxo-5,6,7,8-tetrahydropteridin-2-yl)pyridin-3-yl)benzenesulfonamide]
IC50 (PLK2): 10 to 50 µM
IC50 (PLK3): > 50 µM
IC50 (PLK1): 10 to 50 µM

SMILES: CC[C@@H]1C(=O)N(C)c2cnc(-n3ccnc3-c3cnccn3)nc2N1C1CC1 [Example 141, (R)-8-cyclopropyl-7-ethyl-5-methyl-2-(2-(pyrazin-2-yl)-1H-imidazol-1-yl)-7,8-dihydropteridin-6(5H)-one]
IC50 (PLK2): 1 to 10 µM
IC50 (PLK3): > 50 µM
IC50 (PLK1): > 50 µM

SMILES: CC[C@@H]1C(=O)N(C)c2cnc(-c3ccncc3-c3ccccc3)nc2N1C1CC1 [Example 142, (R)-8-cyclopropyl-7-ethyl-5-methyl-2-(3-phenylpyridin-4-yl)-7,8-dihydropteridin-6(5H)-one]
IC50 (PLK2): < 1 µM
IC50 (PLK3): 10 to 50 µM
IC50 (PLK1): 10 to 50 µM

SMILES: CC[C@@H]1C(=O)N(C)c2cnc(-n3ccnc3-c3cncnc3)nc2N1C1CC1 [Example 143, (R)-8-cyclopropyl-7-ethyl-5-methyl-2-(2-(pyrimidin-5-yl)-1H-imidazol-1-yl)-7,8-dihydropteridin-6(5H)-one]
IC50 (PLK2): 1 to 10 µM
IC50 (PLK3): 10 to 50 µM
IC50 (PLK1): 10 to 50 µM

SMILES: CC[C@@H]1C(=O)N(C)c2cnc(-n3ccnc3-c3nccs3)nc2N1C(C)C [Example 151, (R)-7-ethyl-8-isopropyl-5-methyl-2-(2-(thiazol-2-yl)-1H-imidazol-1-yl)-7,8-dihydropteridin-6(5H)-one]
IC50 (PLK2): < 1 µM
IC50 (PLK3): 10 to 50 µM
IC50 (PLK1): 1 to 10 µM

SMILES: CC[C@@H]1C(=O)N(C)c2cnc(-n3ccnc3-c3nccs3)nc2N1C1CCC1 [Example 156, (R)-8-cyclobutyl-7-ethyl-5-methyl-2-(2-(thiazol-2-yl)-1H-imidazol-1-yl)-7,8-dihydropteridin-6(5H)-one]
IC50 (PLK2): < 1 µM
IC50 (PLK3): 1 to 10 µM
IC50 (PLK1): 1 to 10 µM

SMILES: [2H]C([2H])([2H])N1C(=O)C(C([2H])([2H])C([2H])([2H])[2H])N(C([2H])(C([2H])([2H])[2H])C([2H])([2H])[2H])c2nc(-n3ccnc3-c3nccs3)ncc21 (stereo not drawn) [Example 158, 7-perdeuteroethyl-8-perdeuteroisopropyl-5-trideuteromethyl-2-(2-(thiazol-2-yl)-1H-imidazol-1-yl)-7,8-dihydropteridin-6(5H)-one]
IC50 (PLK2): < 1 µM
IC50 (PLK3): 10 to 50 µM
IC50 (PLK1): 1 to 10 µM

SMILES: [2H]C([2H])([2H])N1C(=O)C(C([2H])([2H])C([2H])([2H])[2H])N(C([2H])(C([2H])([2H])[2H])C([2H])([2H])[2H])c2nc(-n3ccnc3-c3cccc(OC(F)(F)F)c3)ncc21 (stereo not drawn) [Example 160, 7-perdeuteroethyl-8-perdeuteroisopropyl-5-trideuteromethyl-2-(2-(3-(trifluoromethoxy)phenyl)-1H-imidazol-1-yl)-7,8-dihydropteridin-6(5H)-one]
IC50 (PLK2): < 1 µM
IC50 (PLK3): 10 to 50 µM
IC50 (PLK1): 1 to 10 µM

SMILES: [2H]C([2H])([2H])N1C(=O)C(C([2H])([2H])C([2H])([2H])[2H])N(C([2H])(C([2H])([2H])[2H])C([2H])([2H])[2H])c2nc(-n3ccnc3-c3ccc(C(F)(F)F)cc3)ncc21 (stereo not drawn) [Example 161, 7-perdeuteroethyl-8-perdeuteroisopropyl-5-trideuteromethyl-2-(2-(4-(trifluoromethyl)phenyl)-1H-imidazol-1-yl)-7,8-dihydropteridin-6(5H)-one]
IC50 (PLK2): < 1 µM
IC50 (PLK3): 1 to 10 µM
IC50 (PLK1): 1 to 10 µM

SMILES: [2H]C([2H])([2H])N1C(=O)C(C([2H])([2H])C([2H])([2H])[2H])N(C([2H])(C([2H])([2H])[2H])C([2H])([2H])[2H])c2nc(-c3c[nH]nc3-c3ccccc3)ncc21 (stereo not drawn) [Example 165, 7-perdeuteroethyl-8-perdeuteroisopropyl-5-trideuteromethyl-2-(3-phenyl-1H-pyrazol-4-yl)-7,8-dihydropteridin-6(5H)-one]
IC50 (PLK2): < 1 µM
IC50 (PLK3): 1 to 10 µM
IC50 (PLK1): < 1 µM

SMILES: CC[C@@H]1C(=O)N(C)c2cnc(-n3ccnc3-c3ccc(C(F)(F)F)cc3)nc2N1C(C)C [Example 166, (R)-7-ethyl-8-isopropyl-5-methyl-2-(2-(4-(trifluoromethyl)phenyl)-1H-imidazol-1-yl)-7,8-dihydropteridin-6(5H)-one]
IC50 (PLK2): < 1 µM
IC50 (PLK3): 10 to 50 µM
IC50 (PLK1): 1 to 10 µM

Other lines, results leading:

IC50 (PLK2): 1 to 10 µM
IC50 (PLK3): > 50 µM
IC50 (PLK1): > 50 µM
SMILES: CC[C@@H]1C(=O)N(C)c2cnc(-c3ccncc3NC(C)=O)nc2N1C(C)C [Example 118, (R)—N-(4-(7-ethyl-8-isopropyl-5-methyl-6-oxo-5,6,7,8-tetrahydropteridin-2-yl)pyridin-3-yl)acetamide]

IC50 (PLK2): 1 to 10 µM
IC50 (PLK3): > 50 µM
IC50 (PLK1): > 50 µM
SMILES: CC[C@@H]1C(=O)N(C)c2cnc(-c3ccncc3NS(C)(=O)=O)nc2N1C(C)C [Example 119, (R)—N-(4-(7-ethyl-8-isopropyl-5-methyl-6-oxo-5,6,7,8-tetrahydropteridin-2-yl)pyridin-3-yl)methanesulfonamide]

IC50 (PLK2): 1 to 10 µM
IC50 (PLK3): > 50 µM
IC50 (PLK1): 1 to 10 µM
SMILES: CC[C@@H]1C(=O)N(C)c2cnc(-c3ccncc3NS(=O)(=O)c3ccccc3)nc2N1C(C)C [Example 120, (R)—N-(4-(7-ethyl-8-isopropyl-5-methyl-6-oxo-5,6,7,8-tetrahydropteridin-2-yl)pyridin-3-yl)benzenesulfonamide]

IC50 (PLK2): 1 to 10 µM
IC50 (PLK3): 10 to 50 µM
IC50 (PLK1): 10 to 50 µM
SMILES: CC[C@@H]1C(=O)N(C)c2cnc(-c3ccncc3CNC(=O)OC)nc2N1C1CCCC1 [Example 121, (R)-methyl (4-(8-cyclopentyl-7-ethyl-5-methyl-6-oxo-5,6,7,8-tetrahydropteridin-2-yl)pyridin-3-yl)methylcarbamate]

IC50 (PLK2): 1 to 10 µM
IC50 (PLK3): 10 to 50 µM
IC50 (PLK1): 10 to 50 µM
SMILES: CC[C@@H]1C(=O)N(C)c2cnc(-c3ccncc3CNC(C)=O)nc2N1C1CCCC1 [Example 122, (R)—N-((4-(8-cyclopentyl-7-ethyl-5-methyl-6-oxo-5,6,7,8-tetrahydropteridin-2-yl)pyridin-3-yl)methyl)acetamide]

IC50 (PLK2): 1 to 10 µM
IC50 (PLK3): 10 to 50 µM
IC50 (PLK1): 1 to 10 µM
SMILES: CC[C@@H]1C(=O)N(C)c2cnc(-c3ccncc3CNS(C)(=O)=O)nc2N1C1CCCC1 [Example 124, (R)—N-((4-(8-cyclopentyl-7-ethyl-5-methyl-6-oxo-5,6,7,8-tetrahydropteridin-2-yl)pyridin-3-yl)methyl)methanesulfonamide]

IC50 (PLK2): 1 to 10 µM
IC50 (PLK3): 10 to 50 µM
IC50 (PLK1): 10 to 50 µM
SMILES: CC[C@@H]1C(=O)N(C)c2cnc(-c3ccncc3CNS(=O)(=O)c3ccccc3)nc2N1C1CCCC1 [Example 125, (R)—N-((4-(8-cyclopentyl-7-ethyl-5-methyl-6-oxo-5,6,7,8-tetrahydropteridin-2-yl)pyridin-3-yl)methyl)benzenesulfonamide]

IC50 (PLK2): 10 to 50 µM
IC50 (PLK3): > 50 µM
IC50 (PLK1): > 50 µM
SMILES: CC[C@@H]1C(=O)N(C)c2cnc(-c3ccncc3CN)nc2N1C(C)C [Example 126, (R)-2-(3-(aminomethyl)pyridin-4-yl)-7-ethyl-8-isopropyl-5-methyl-7,8-dihydropteridin-6(5H)-one]

IC50 (PLK2): 1 to 10 µM
IC50 (PLK3): 10 to 50 µM
IC50 (PLK1): 10 to 50 µM
SMILES: CC[C@@H]1C(=O)N(C)c2cnc(-c3ccncc3CNC(=O)OC)nc2N1C(C)C [Example 128, (R)-methyl (4-(7-ethyl-8-isopropyl-5-methyl-6-oxo-5,6,7,8-tetrahydropteridin-2-yl)pyridin-3-yl)methylcarbamate]

IC50 (PLK2): 10 to 50 µM
IC50 (PLK3): > 50 µM
IC50 (PLK1): > 50 µM
SMILES: CC[C@@H]1C(=O)N(C)c2cnc(-c3ccncc3CNC(C)=O)nc2N1C(C)C [Example 129, (R)—N-((4-(7-ethyl-8-isopropyl-5-methyl-6-oxo-5,6,7,8-tetrahydropteridin-2-yl)pyridin-3-yl)methyl)acetamide]

IC50 (PLK2): > 50 µM
IC50 (PLK3): > 50 µM
IC50 (PLK1): > 50 µM
SMILES: CC[C@@H]1C(=O)N(C)c2cnc(-c3ccncc3CNC(=O)c3ccccc3)nc2N1C(C)C [Example 130, (R)—N-((4-(7-ethyl-8-isopropyl-5-methyl-6-oxo-5,6,7,8-tetrahydropteridin-2-yl)pyridin-3-yl)methyl)benzamide]

IC50 (PLK2): 10 to 50 µM
IC50 (PLK3): > 50 µM
IC50 (PLK1): > 50 µM
SMILES: CC[C@@H]1C(=O)N(C)c2cnc(-c3ccncc3CNS(C)(=O)=O)nc2N1C(C)C [Example 131, (R)—N-((4-(7-ethyl-8-isopropyl-5-methyl-6-oxo-5,6,7,8-tetrahydropteridin-2-yl)pyridin-3-yl)methyl)methanesulfonamide]

IC50 (PLK2): 1 to 10 µM
IC50 (PLK3): > 50 µM
IC50 (PLK1): 10 to 50 µM
SMILES: CC[C@@H]1C(=O)N(C)c2cnc(-c3ccncc3CNS(=O)(=O)c3ccccc3)nc2N1C(C)C [Example 136, (R)—N-((4-(7-ethyl-8-isopropyl-5-methyl-6-oxo-5,6,7,8-tetrahydropteridin-2-yl)pyridin-3-yl)methyl)benzenesulfonamide]

IC50 (PLK2): < 1 µM
IC50 (PLK3): 1 to 10 µM
IC50 (PLK1): 10 to 50 µM
SMILES: CC[C@@H]1C(=O)N(C)c2cnc(-n3ccnc3-c3ccncc3)nc2N1C(C)C [Example 150, (R)-7-ethyl-8-isopropyl-5-methyl-2-(2-(pyridin-4-yl)-1H-imidazol-1-yl)-7,8-dihydropteridin-6(5H)-one]

IC50 (PLK2): < 1 µM
IC50 (PLK3): < 1 µM
IC50 (PLK1): < 1 µM
SMILES: CC[C@@H]1C(=O)N(C)c2cnc(-c3c[nH]nc3-c3ccccc3)nc2N1C(C)C [Example 164, (R)-7-ethyl-8-isopropyl-5-methyl-2-(3-phenyl-1H-pyrazol-4-yl)-7,8-dihydropteridin-6(5H)-one]

— patent US8541418B2, “Inhibitors of polo-like kinase” (Elan Pharmaceutical, Inc., priority 2009, dated 2013)
